Results from patent US10130615B2, “Benzomorphan analogs and the use thereof” (priority 2014, dated 2018).
Read-outs that look alike come from different tables or passages of the source.

Key:
μ-opioid receptor [1] = molecular target: T1, μ-opioid receptor (Homo sapiens, UniProt P35372); assay: cell-based; design: purchased Perkin Elmer, Shelton, Conn; settings: U2OS cells; for Emax: read-out: β-Arr2 μ Emax; for EC50: read-out: β-Arr2 μ EC50
μ-opioid receptor [2] = molecular target: T1, μ-opioid receptor; assay: μ-opioid receptor GTPγS functional assay, U2OS cells; settings: for Emax: read-out: GTPγS μ Emax
κ-opioid receptor [3] = molecular target: T2, κ-opioid receptor (Homo sapiens, UniProt P41145); assay: κ-opioid receptor GTPγS functional assay, U2OS cells; assay type: biochemical; design: expressed in transfected cells; host or cells: U-2 OS; settings: U2OS cells; for EC50: read-out: GTPγS κ EC50
T2 sequence (P41145 whole entry): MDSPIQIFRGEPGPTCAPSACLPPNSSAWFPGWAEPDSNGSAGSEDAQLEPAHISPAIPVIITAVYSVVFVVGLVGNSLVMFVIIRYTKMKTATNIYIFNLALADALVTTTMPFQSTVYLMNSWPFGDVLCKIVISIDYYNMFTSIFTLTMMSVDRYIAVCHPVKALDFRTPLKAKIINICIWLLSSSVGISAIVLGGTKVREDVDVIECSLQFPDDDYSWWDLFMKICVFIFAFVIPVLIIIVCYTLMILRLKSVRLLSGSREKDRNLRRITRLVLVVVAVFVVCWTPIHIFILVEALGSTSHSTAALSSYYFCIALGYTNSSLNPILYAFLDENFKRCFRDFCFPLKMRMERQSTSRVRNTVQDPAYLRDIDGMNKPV
Method: (§1) Plates were incubated for 30 min at a temperature of about 25° C. with shaking.

κ-opioid receptor [4] = molecular target: T2, κ-opioid receptor; assay: κ-opioid receptor β-Arr2 activity response, U2OS cells; assay type: cell-based; design: expressed in transfected cells; host or cells: U-2 OS
κ-opioid receptor [5] = molecular target: T2, κ-opioid receptor; assay: κ-opioid receptor radioligand binding assay ([3H]-U69,593); design: expressed in transfected cells; host or cells: HEK-293
Method: κ-opioid Receptor Binding Assay Procedures: Membranes from recombinant HEK-293 cells expressing the human κ opioid receptor (κ) (cloned in house) were prepared by lysing cells in ice cold hypotonic buffer (2.5 mM MgCl2, 50 mM HEPES, pH 7.4) (10 mL/10 cm dish) followed by homogenization with a tissue grinder/Teflon pestle. Membranes were collected by centrifugation at 30,000×g for 15 min at 4° C. and pellets were resuspended in hypotonic buffer to a final concentration of 1-3 mg/mL. Protein concentrations were determined using the BioRad protein assay reagent with bovine serum albumen as standard. Aliquots of κ receptor membranes were stored at −80° C.
Radioligand dose displacement assays used 0.4 nM [^3H]-U69,593 (GE Healthcare, Piscataway, N.J.; 40 Ci/mmole) with 15 μg membrane protein (recombinant κ opioid receptor expressed in HEK 293 cells; in-house prep) in a final volume of 200 μl binding buffer (5% DMSO, 50 mM Trizma base, pH 7.4). Non-specific binding was determined in the presence of 10 μM unlabeled naloxone or U69,593. All reactions were performed in 96-well polypropylene plates for 1 hr at a temperature of about 25° C.

κ-opioid receptor [6] = molecular target: T2, κ-opioid receptor; assay: κ-opioid receptor [35S]GTPγS functional assay, HEK-293 or CHO cells; assay type: biochemical; design: expressed in transfected cells; host or cells: HEK-293; settings: for Emax: relative to U69,593
Method: as §1

μ-opioid receptor [7] = molecular target: T1, μ-opioid receptor; assay: μ-opioid receptor radioligand binding assay ([3H]-diprenorphine); design: purchased Perkin Elmer, Shelton, Conn; host or cells: HEK-293 or CHO; settings: HEK-293 or CHO cells; read-out: Ki (nM) Opioid Receptor μ
Method: μ-opioid Receptor Binding Assay Procedures: Radioligand dose-displacement binding assays for μ-opioid receptors used 0.3 nM [^3H]-diprenorphine (Perkin Elmer, Shelton, Conn.), with […] membrane protein/well in a final volume of 500 μl binding buffer (10 mM MgCl2, 1 mM EDTA, 5% DMSO, 50 mM HEPES, pH 7.4). Reactions were carried out in the absence or presence of increasing concentrations of unlabeled naloxone. All reactions were conducted in 96-deep well polypropylene plates for 2 hr at room temperature. […] The data were analyzed using the one-site competition curve fitting functions in GraphPad PRISM™ v. 3.0 or higher (San Diego, Calif.), or an in-house function for one-site competition curve-fitting.

μ-opioid receptor [8] = molecular target: T1, μ-opioid receptor; assay: biochemical; design: purchased Perkin Elmer, Shelton, Conn; host or cells: HEK-293 or CHO; settings: HEK-293 or CHO cells; for Emax: relative to DAMGO, read-out: GTPγS μ Emax; for EC50: read-out: GTPγS μ EC50
[9] = U2OS cells, read-out: β-Arr2 κ EC50
[10] = HEK-293 or CHO cells, read-out: Ki (nM) Opioid Receptor κ
[11] = HEK-293 or CHO cells, read-out: GTPγS κ EC50

T1 sequence (P35372 whole entry, species assumed): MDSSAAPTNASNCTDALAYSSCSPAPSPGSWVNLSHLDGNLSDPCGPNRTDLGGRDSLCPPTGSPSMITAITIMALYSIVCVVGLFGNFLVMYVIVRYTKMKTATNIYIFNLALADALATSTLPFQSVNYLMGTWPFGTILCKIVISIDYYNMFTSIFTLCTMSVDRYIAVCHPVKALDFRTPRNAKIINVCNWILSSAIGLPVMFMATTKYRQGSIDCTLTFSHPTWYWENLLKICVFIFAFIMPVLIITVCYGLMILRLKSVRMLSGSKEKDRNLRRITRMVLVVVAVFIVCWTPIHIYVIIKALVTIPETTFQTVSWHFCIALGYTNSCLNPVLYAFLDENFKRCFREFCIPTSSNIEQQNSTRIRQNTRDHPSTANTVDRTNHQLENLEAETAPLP

SMILES	Emax (μ-opioid receptor [1])	EC50 (μ-opioid receptor [2])	Emax (μ-opioid receptor [2])	Emax (κ-opioid receptor [3])	EC50 (κ-opioid receptor [3])	Emax (κ-opioid receptor [4]; U2OS cells)	EC50 (κ-opioid receptor [4]; [9])	Ki (κ-opioid receptor [5]; [10])	EC50 (κ-opioid receptor [6]; [11])	Emax (κ-opioid receptor [6]; HEK-293 or CHO cells)	Ki (μ-opioid receptor [7])	Emax (μ-opioid receptor [8])	EC50 (μ-opioid receptor [8])	Ki (κ-opioid receptor [5])	EC50 (μ-opioid receptor [1])	EC50 (κ-opioid receptor [4])	EC50 (κ-opioid receptor [6])
COC(=O)[C@H](Cc1ccccc1)NCCCC[C@]12CCN(CC3CC3)[C@H](Cc3ccc(O)cc31)[C@@H]2C [Compound 27]	1%	0.27 ± 0.058 nM	22.3 ± 2.85%	106 ± 7.13%	0.15 ± 0.023 nM	12.7 ± 1.86%	0.27 ± 0.11 nM	0.054 ± 0.01 nM	0.6 ± 0.12 nM	61.7 ± 4.33%	0.071 ± 0.021 nM	1%					
COc1ccc2c(c1)[C@]1(CCNC3(C(=O)O)CC3)CCN(CC3CC3)[C@H](C2)[C@@H]1C [Compound 34, 1-((2-((2R,6R,11R)-3-(cyclopropyl-methyl)-8-methoxy-11-methyl-2,3,4,5-tetrahydro-2,6-methanobenzo[d]azocin-6(1H)-yl)ethyl)amino)cyclopropane-1-carboxylic acid]								286 ± 2.93 nM	7900 ± 2010 nM	81.3 ± 10.2%	1470 ± 177 nM	70.3 ± 3.71%	2880 ± 310 nM				
COc1ccc2c(c1)[C@]1(CCNC(=O)CN)CCN(CC3CC3)[C@H](C2)[C@@H]1C [Compound 33, 2-amino-N-(2-((2R,6R,11R)-3-(cyclopropylmethyl)-8-methoxy-11-methyl-2,3,4,5-tetrahydro-2,6-methanobenzo[d]azocin-6(1H)-yl)ethyl)acetamide]		1170 ± 247 nM	56 ± 3.06%	108 ± 3.38%	4.93 ± 1.06 nM	42 ± 4%	12.8 ± 4.1 nM	1.04 ± 0.071 nM	61.2 ± 20.1 nM	113 ± 1%	936 ± 189 nM	92.7 ± 6.57%	356 ± 111 nM				
C[C@H]1[C@H]2Cc3ccc(O)cc3[C@]1(CCNC(=O)[C@@H]1CCCCN1)CCN2CC1CC1 [Compound 11, (S)-N-(2-((2R,6R,11R)-3-(cyclopropyl-methyl)-8-hydroxy-11-methyl-2,3,4,5-tetrahydro-2,6-methanobenzo[d]azocin-6(1H)-yl)ethyl)piperidine-2-carboxamide]	-1.5%							0.17 ± 0.044 nM	1.04 ± 0.059 nM	84 ± 3.63%		23 ± 1.38%	18.3 ± 5.58 nM				
COc1ccc2c(c1)[C@@]1(CCO)CCN(CC3CC3)[C@@H](C2)[C@H]1C [Compound 46, 2-((2S,6R,11S)-3-(cyclopropylmethyl)-8-methoxy-11-methyl-2,3,4,5-tetrahydro-2,6-methanobenzo[d]azocin-6(1H)-yl)ethan-1-ol]														3580 ± 457 nM			
CC(C)[C@H](NCC[C@@]12CCN(CC3CC3)[C@@H](Cc3ccc(O)cc31)[C@H]2C)C(=O)O [Compound 42, (2-((2S,6S,11S)-3-(cyclopropylmethyl)-8-hydroxy-11-methyl-2,3,4,5-tetrahydro-2,6-methanobenzo[d]azocin-6(1H)-yl)ethyl)-L-valine]								2620 ± 729 nM			4610 ± 551 nM	56 ± 2.52%	2390 ± 230 nM				
COc1ccc2c(c1)[C@]1(CCNCC(=O)O)CCN(CC3CC3)[C@H](C2)[C@@H]1C [Compound 36, (2-((2R,6R,11R)-3-(cyclopropyl-methyl)-8-methoxy-11-methyl-2,3,4,5-tetrahydro-2,6-methanobenzo[d]azocin-6(1H)-yl)ethyl)glycine]								133 ± 22.9 nM	1980 ± 216 nM	69 ± 6.24%	1020 ± 51.3 nM	39 ± 1.53%	798 ± 24.1 nM				
C[C@H]1[C@H]2Cc3ccc(O)cc3[C@]1(CCNC(=O)Nc1ccc(C(=O)O)cc1)CCN2CC1CC1 [Compound 2, 4-(3-(2-((2R,6R,11R)-3-(cyclopropyl-methyl)-8-hydroxy-11-methyl-2,3,4,5-tetrahydro-2,6-methanobenzo[d]azocin-6(1H)-yl)ethyl)ureido)benzoic acid]	-1.5%	1.89 ± 0.18 nM	72.5 ± 1.5%	106 ± 2.52%	4.11 ± 0.25 nM	28.7 ± 4.67%	8.4 ± 1.86 nM	7.08 ± 0.71 nM									
COc1ccc2c(c1)[C@@]1(CCOCc3ccccc3)CCN(CC3CC3)[C@@H](C2)[C@H]1C [Compound 44, (2S,6R,11S)-6-(2-(benzyloxy)ethyl)-3-(cyclopropylmethyl)-8-methoxy-11-methyl-1,2,3,4,5,6-hexahydro-2,6-methanobenzo[d]azocine]				79.3 ± 3.38%	327 ± 50.5 nM	102 ± 11.6%	10300 ± 1050 nM	118 ± 8.52 nM	854 ± 240 nM	32 ± 0.58%	1840 ± 222 nM						
COc1ccc2c(c1)[C@]1(CCN[C@@H](C)C(=O)O)CCN(CC3CC3)[C@H](C2)[C@@H]1C [Compound 40, (2-((2R,6R,11R)-3-(cyclopropyl-methyl)-8-methoxy-11-methyl-2,3,4,5-tetrahydro-2,6-methanobenzo[d]azocin-6(1H)-yl)ethyl)-L-ananine]				115 ± 1.73%	542 ± 13.1 nM			248 ± 95.7 nM	7890 ± 1340 nM	86.3 ± 7.54%	871 ± 211 nM	77.7 ± 6.12%	1660 ± 245 nM				
C[C@H]1[C@H]2Cc3ccc(O)cc3[C@]1(CCO)CCN2C [Compound 12, (2R,6S,11R)-6-(2-hydroxyethyl)-3,11-dimethyl-1,2,3,4,5,6-hexahydro-2,6-methanobenzo[d]azocin-8-ol]	8.83 ± 0.44%					12.7 ± 1.57%				37.1 ± 1.43%		58.2 ± 1.65%	237 ± 36.2 nM	22.4 ± 3.57 nM	386 ± 89.5 nM	5520 ± 4650 nM	344 ± 32.6 nM
C[C@H]1[C@H]2Cc3ccc(O)cc3[C@]1(CCN1CCS(=O)(=O)CC1)CCN2C [Compound 10, 4-(2-((2R,6R,11R)-8-hydroxy-3,11-dimethyl-2,3,4,5-tetrahydro-2,6-methanobenzo[d]azocin-6(1H)-yl)-ethyl)thiomorpholine 1,1-dioxide]	2.83 ± 0.27%					17.2 ± 0.97%	4660 ± 1720 nM	77 ± 2.02 nM	516 ± 33.9 nM	26.6 ± 1.52%		51 ± 1.08%	133 ± 16.1 nM		129 ± 34.4 nM		
COC(=O)[C@@H](NCC[C@@]12CCN(CC3CC3)[C@@H](Cc3ccc(OC)cc31)[C@H]2C)C(C)C [Compound 37, methyl (2-((2S,6S,11S)-3-(cyclopropyl-methyl)-8-methoxy-11-methyl-2,3,4,5-tetrahydro-2,6-methanobenzo[d]azocin-6(1H)-yl)ethyl)-L-valinate]								8990 ± 2060 nM			13900 nM	19.3 ± 2.33%	9390 ± 820 nM				
C[C@H]1[C@H]2Cc3ccc(O)cc3[C@]1(CCNS(C)(=O)=O)CCN2C [Compound 13, N-(2-((2R,6S,11R)-8-hydroxy-3,11-dimethyl-2,3,4,5-tetrahydro-2,6-methanobenzo[d]azocin-6(1H)-yl)ethyl)methanesulfonamide]	-1%							20.5 ± 3.21 nM	166 ± 1.48 nM	30.8 ± 0.19%		25 ± 1.53%	285 ± 72 nM				
CCOC(=O)c1ccc(NC(=O)NCC[C@]23CCN(CC4CC4)[C@H](Cc4ccc(OC)cc42)[C@@H]3C)cc1 [Compound 1, Ethyl 4-(3-(2-((2R,6R,11R)-3-(cyclopropylmethyl)-8-methoxy-11-methyl-2,3,4,5-tetrahydro-2,6-methanobenzo[d]azocin-6(1H)-yl)ethyl)ureido)benzoate]	25.5%	164 ± 31.6 nM	62 ± 2.08%	103 ± 3.53%	5.79 ± 0.56 nM	44.2 ± 4.05%	63.8 ± 7.23 nM		33.4 ± 2.26 nM	78.3 ± 0.91%		27.8 ± 0.85%	4.21 ± 0.67 nM				
